Results published in patent US12415811B2, “1,2,3',5'-tetrahydro-2'h-spiro[indole-3,1'-pyrrolo[3,4-C]pyrrole]-2,3'-dione compounds as therapeutic agents activating TP53” (ADAMED PHARMA, S.A., priority 2018, dated 2025).
Read-outs that look alike come from different tables or passages of the source.

Columns and labels:
SJSA-1 xenograft = test: In vivo efficacy in the SJSA-1 xenograft model in mice; conditions: for inhibition in vivo at 12.5 mg/kg: Mus musculus, po, 12.5 mg/kg p.o., q1d, SJSA-1 xenograft in Crl:CD-1-Foxn1nu mice, mean; for effect of treatment on tumors (in words): 14 doses of 12.5 mg/kg p.o., SJSA-1 xenograft; for regrowth of lesions during follow-up: after 14 doses of 12.5 mg/kg p.o., follow-up to day 101
Description: The experiment was conducted on female mice from the Crl:CD-1-Foxn1nu strain. Mice were inoculated subcutaneously in the right flank with cancer cell line SJSA-1 in the amount of 3×10^6 cells suspended in 100 μl HBSS: Matrigel matrix in a 3:1 ratio per mouse. On the 17th day after inoculation mice were divided into groups, so that in each group the mean tumor volume was similar and averaged around 200 mm^3. Experiment groups were selected, each consisting of 8 mice: Control NaCl 0.9% and compounds. Compounds 1-11 were dissolved in 56.60% PEG 400, 9.43% Cremophor RH40, 9.43% ETOH, 18.87% Labrafil M1944CS, 5.67% DMSO. For Compound 107 from WO2015/189799, group of 7 mice was used, and it was dissolved in 15% PEG400, 10% Cremophor EL, 75% H2O.
[…] During the course of experiment mice were weighed before each administration, —twice/thrice a week. Animal welfare was monitored daily. No significant difference in body weight or welfare was observed between experiment groups during and at the end of study.
Change in tumor volume was monitored twice/thrice a week starting from the first day of administration. Tumor volume was calculated based on its length and width measured with an electronic calipers: V[mm^3]=d^2×D/2
The tumor volume in the groups was measured up to 101 days after inoculation (72 days after last administration). Results of the experiment were expressed as mean values of tumor growth inhibition (TGI) ±SEM (Table 4). Tumor growth inhibition was calculated using the following formula TGI [%]=[100−[…]]
where C— mean tumor size in control group, T—mean tumor size in treated group. All calculations and graphs were performed using GraphPad Prism 5 software.

[1] = In vitro intrinsic clearance in human microsomes; format: in vitro ADME; conditions: pH 7.4; human microsomes 0.5 mg/ml, 1 μM compound, 37° C., up to 1 hour; read-out: human MS Clint
Description: (§1) Metabolic stability of the compounds of the invention has been assessed by measurement of the in vitro intrinsic clearance in murine and human microsomes.
(§2) 10 mM stock solutions of markers and test compounds were prepared in DMSO. These were diluted 100-fold in 91:9 MeCN:DMSO to obtain a 100 μM assay stock. 10 mM NADPH was made up in 0.1M phosphate buffer (pH7.4). Microsomes were thawed in a waterbath at 37° C., and diluted to give a final assay concentration of 0.5 mg/ml.
(§3) 100 μM assay stocks were added to give a final concentration of 1 μM to incubation tubes containing buffer and NADPH (final assay concentration is 1 mM). Incubation tubes and microsomes were pre-warmed at 37° C. for 3 minutes. The microsomes were then added to the incubation tubes which were kept at 37° C. and shaken using the orbital shaker for the duration of the assay. Samples were taken at 6 pre-determined time points up to 1 hour and transferred to the prepared quench tubes containing an appropriate solvent with internal standard.
(§4) Quenched samples are mixed thoroughly and protein precipitated at −20° C. for a minimum of 12 hours. Samples were then centrifuged at 4° C. Supernatants were transferred to a fresh 96 well plate, compatible with the auto-sampler. The plate was sealed with a pre-slit silicone mat and analyzed by LC-MS/MS.

p53-Mdm2 interaction = p53-Mdm2 interaction (Homo sapiens (Human), UniProt Q00987); test: Fluorescence polarization (FP) binding assay, inhibition of p53-Mdm2 interaction; conditions: 75 nM Mdm2 (amino acids 1-111), 10 nM FAM-labelled p53 peptide; IC50 transformed to Ki using Kenakin equation
Sequence of p53-Mdm2 interaction (Q00987 1-111): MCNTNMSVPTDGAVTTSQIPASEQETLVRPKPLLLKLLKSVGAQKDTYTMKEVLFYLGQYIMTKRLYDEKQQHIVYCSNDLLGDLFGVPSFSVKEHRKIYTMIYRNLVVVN
Description: The inhibition of p53-Mdm2 interaction was measured using a fluorescence polarization (FP) binding assay. FP measures the rotational movement of molecules in a homogenous suspension. For this assay, N-terminal domain of Mdm2 protein (amino acids 1-111) is combined with a fluorescein-labeled (FAM) peptide derived from p53 trans-activation domain (Sequence: 5-FAM-TSFAEYWNLLSP). Upon excitation of the fluorescent ligand with linearly polarized light the peptide emits perpendicularly polarized light. If the peptide is bound by Mdm2, rotation will slow down and the perpendicular component will proportionally decrease. In opposition disruption of the peptide-Mdm2 complex due to binding of an inhibitor to the p53 binding site of Mdm2 results in releasing of peptide and decreasing of emitted light polarization.
Fluorescence polarization experiments were read on Biotek Cytation 5 reader with the 470 nm excitation and 520 nm emission filters for fluorescein. The fluorescence polarization was measured in black 96-well plates (Corning, CLS3991) in room temperature. Purity of Mdm2 was controlled at >95%. Reaction buffer was optimized by adding 5 mM DTT and 0.1% zwitterionic detergent CHAPS to reduce effect of nonspecific interactions.
The test was performed by combining successive dilution of compounds diluted in dimethyl sulfoxide (DMSO, 5% final concentration) with 75 nM Mdm2 in reaction buffer (PBS, 0.1% CHAPS, 5 mM DTT (dithiothreitol)). After 15 minutes of incubation in room temperature 10 nM FAM-labelled peptide was added. Final reading was performed after 90 minutes of incubation. Dose-dependent binding curves and IC50 values were calculated using GraphPad Prism5 and next transformed to Ki values using Kenakin equation (Table 2).

[2] = In vitro intrinsic clearance in murine microsomes; format: in vitro ADME; conditions: mouse, pH 7.4; murine microsomes 0.5 mg/ml, 1 μM compound, 37° C., up to 1 hour; read-out: murine MS Clint
Description: as §1, §2, §3, §4

[3] = tested on: SJSA-1 osteosarcoma cell line; test: Cell viability MTT assay; format: cell-based; conditions: Homo sapiens, 72 h incubation, average of 2-5 experiments
Description: The effect of the invented p53-Mdm2 inhibitors on cell viability has been assessed using MTT assay. It is a colorimetric assay that measures conversion of tetrazolium ring of the soluble yellow dye (MTT) into insoluble purple formazan. This process is catalyzed solely in mitochondrial dehydrogenases of living cells.
Cells were seeded on 96-well plates and then treated with successive dilutions of tested compounds. After 72 h incubation, MTT was added to the final concentration 0.5 mg/ml. The cells were further incubated for the next 4 h. Then the solution was drained and the remaining formazan crystals were dissolved in 100 μl DMSO. […] All the MTT experiments were independently repeated 2-5 times. Dose-dependent binding curves and IC50 values were calculated using GraphPad Prism 5. The presented IC50 values represent the average value from all the performed experiments (Table 3).

[4] = after 7 doses, read-out: TGI P.O. 12.5 mg/kg (7 doses) [%]
[5] = after 12 doses, read-out: TGI P.O. 12.5 mg/kg (12 doses) [%]

| Structure (SMILES) | inhibition in vivo at 12.5 mg/kg (SJSA-1 xenograft; [4]) | inhibition in vivo at 12.5 mg/kg (SJSA-1 xenograft; [5]) | microsomal CLint at 1 μM [1] | Ki (p53-Mdm2 interaction) | microsomal CLint at 1 μM [2] | IC50 [3] | effect of treatment on tumors (in words) (SJSA-1 xenograft) | regrowth of lesions during follow-up (SJSA-1 xenograft) |
| --- | --- | --- | --- | --- | --- | --- | --- | --- |
| COc1ncc(-n2cc3c(c2C(C)C)[C@@]2(C(=O)Nc4cc(Cl)ccc42)N(c2cccc(Cl)c2)C3=O)c(OC)n1 [Compound 1, (3S)-6-chloro-2′-(3-chlorophenyl)-5′-(2,4-dimethoxypyrimidin-5-yl)-6′-(propan-2-yl)-1,2,3′,5′-tetrahydro-2′H-spiro[indole-3,1′-pyrrolo[3,4-c]pyrrole]-2,3′-dione] | 95% | 99.5% | < 3 µL/min/mg | 1.8 nM | 8.8 µL/min/mg | 0.18 µM | – | – |
| COc1ncc(-n2cc3c(c2C(C)C)[C@@]2(C(=O)Nc4cc(Cl)ccc42)N(c2cc(Cl)ccc2F)C3=O)c(OC)n1 [Compound 2, (3S)-6-chloro-2′-(5-chloro-2-fluorophenyl)-5′-(2,4-dimethoxypyrimidin-5-yl)-6′-(propan-2-yl)-1,2,3′,5′-tetrahydro-2′H-spiro[indole-3,1′-pyrrolo[3,4-c]pyrrole]-2,3′-dione] | 94.4% | 98.9% | < 3 µL/min/mg | 1.7 nM | < 4 µL/min/mg | 0.16 µM | – | – |
| COc1nc(OC)c(-n2cc3c(c2C(C)C)[C@@]2(C(=O)Nc4cc(Cl)ccc42)N(c2cc(Cl)ccc2C)C3=O)c(OC)n1 [Compound 3, (3S)-6-chloro-2′-(5-chloro-2-methylphenyl)-6′-(propan-2-yl)-5′-(trimethoxypyrimidin-5-yl)-1,2,3′,5′-tetrahydro-2′H-spiro[indole-3,1′-pyrrolo[3,4-c]pyrrole]-2,3′-dione] | 94.2% | 99.6% | < 3 µL/min/mg | 2.4 nM | < 3 µL/min/mg | 0.07 µM | – | – |
| COc1ncc(-n2cc3c(c2C(C)C)[C@@]2(C(=O)Nc4cc(Cl)ccc42)N(c2ccc(F)c(Cl)c2)C3=O)c(OC)n1 [Compound 4, (3S)-6-chloro-2′-(3-chloro-4-fluorophenyl)-5′-(2,4-dimethoxypyrimidin-5-yl)-6′-(propan-2-yl)-1,2,3′,5′-tetrahydro-2′H-spiro[indole-3,1′-pyrrolo[3,4-c]pyrrole]-2,3′-dione] | 94.9% | 99.5% | < 3 µL/min/mg | 1.7 nM | < 3 µL/min/mg | 0.32 µM | – | – |
| COc1nc(OC)c(-n2cc3c(c2C(C)C)[C@@]2(C(=O)Nc4cc(Cl)ccc42)N(c2cc(Cl)ccc2F)C3=O)c(OC)n1 [Compound 5, (3S)-6-chloro-2′-(5-chloro-2-fluorophenyl)-6′-(propan-2-yl)-5′-(trimethoxypyrimidin-5-yl)-1,2,3′,5′-tetrahydro-2′H-spiro[indole-3,1′-pyrrolo[3,4-c]pyrrole]-2,3′-dione] | 85.8% | 96% | < 3 µL/min/mg | 2.2 nM | < 3 µL/min/mg | 0.18 µM | – | – |
| COc1cc(N(C)C)ncc1-n1cc2c(c1C(C)C)[C@@]1(C(=O)Nc3cc(Cl)ccc31)N(c1cc(Cl)ccc1F)C2=O [Compound 6, (3S)-6-chloro-2′-(5-chloro-2-fluorophenyl)-5′-[6-(dimethylamino)-4-methoxypyridin-3-yl]-6′-(propan-2-yl)-1,2,3′,5′-tetrahydro-2′H-spiro[indole-3,1′-pyrrolo[3,4-c]pyrrole]-2,3′-dione] | 92% | 99.1% | 19.8 µL/min/mg | 1.7 nM | 33.6 µL/min/mg | 0.03 µM | – | – |
| COc1ncc(-n2cc3c(c2C(C)C)[C@@]2(C(=O)Nc4cc(Cl)ccc42)N(c2ccc(F)c(F)c2)C3=O)c(OC)n1 [Compound 7, (3S)-6-chloro-2′-(3,4-difluorophenyl)-5′-(2,4-dimethoxypyrimidin-5-yl)-6′-(propan-2-yl)-1,2,3′,5′-tetrahydro-2′H-spiro[indole-3,1′-pyrrolo[3,4-c]pyrrole]-2,3′-dione] | 95% | 100% | < 3 µL/min/mg | 1.9 nM | 6.6 µL/min/mg | 0.22 µM | complete eradication of tumors | none of the lesions exhibited regrowth |
| COc1cc(OC)c(-n2cc3c(c2C(C)C)[C@@]2(C(=O)Nc4cc(Cl)ccc42)N(c2cc(Cl)ccc2F)C3=O)cn1 [Compound 9, (3S)-6-chloro-2′-(5-chloro-2-fluorophenyl)-5′-(4,6-dimethoxypyridin-3-yl)-6′-(propan-2-yl)-1,2,3′,5′-tetrahydro-2′H-spiro[indole-3,1′-pyrrolo[3,4-c]pyrrole]-2,3′-dione] | 89.5% | 97.7% | – | 2 nM | – | 0.12 µM | – | – |
| CCC(C)c1c2c(cn1-c1cnc(OC)nc1OC)C(=O)N(c1cc(Cl)ccc1F)[C@]21C(=O)Nc2cc(Cl)ccc21 (stereo partly drawn) [Compound 11, (3)-6′-(butan-2-yl)-6-chloro-2′-(5-chloro-2-fluorophenyl)-5′-(2,4-dimethoxypyrimidin-5-yl)-1,2,3′,5′-tetrahydro-2′H-spiro[indole-3,1′-pyrrolo[3,4-c]pyrrole]-2,3′-dione] | 93.7% | 99.7% | – | 2.5 nM | – | 0.05 µM | complete eradication of tumors | none of the lesions exhibited regrowth |
